Test results from PubChem BioAssay (NCI).
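Interpolation was linear, between the two tested concentrations surrounding the appropriate level; five concentrations were tested over 48 hours in 96-well plates. Abbreviation: GI50, concentration required for 50% inhibition of growth. TGI is the concentration that stops growth completely.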

Columns and labels:
Assay in all cases: NCI anticancer screen, dose series, 48 h
[1] = system: KM12 colon
[2] = system: U251 CNS
[3] = system: 786-0 renal
[4] = system: SF-539 CNS
[5] = system: HCT-116 colon
[6] = system: UO-31 renal
[7] = system: SNB-19 CNS
[8] = system: SF-295 CNS
[9] = system: UACC-62 melanoma
[10] = system: SK-MEL-28 melanoma
[11] = system: HCC-2998 colon
[12] = system: NCI-H23 lung
[13] = system: MCF7 breast
[14] = system: MDA-MB-435
[15] = system: SK-OV-3 ovarian
[16] = system: BT-549 breast
[17] = system: SK-MEL-2 melanoma
[18] = system: HOP-62 NSCLC
[19] = system: COLO 205 colon
[20] = system: NCI-H460 lung
[21] = system: NCI/ADR-RES ovarian
[22] = system: UACC-257 melanoma
[23] = system: M14 melanoma
[24] = system: SF-268 CNS
[25] = system: LOX IMVI melanoma
[26] = system: EKVX NSCLC
[27] = system: SNB-75 CNS
[28] = system: RPMI-8226 leukemia
[29] = system: SW-620 colon
[30] = system: NCI-H226 lung
[31] = system: SN12C renal
[32] = system: SK-MEL-5 melanoma
[33] = system: A549 NSCLC
[34] = system: OVCAR-4 ovarian
[35] = system: OVCAR-5 ovarian
[36] = system: K-562 leukemia
[37] = system: HCT-15 colon
[38] = system: A498 renal
[39] = system: OVCAR-8 ovarian
[40] = system: MALME-3M melanoma
[41] = system: CAKI-1 renal
[42] = system: NCI-H522 lung
[43] = system: HT29 colon
[44] = system: HOP-92 NSCLC
[45] = system: T-47D breast
[46] = system: MDA-MB-231 breast
[47] = system: RXF 393 renal
[48] = system: ACHN renal
[49] = system: HS 578T breast
[50] = system: TK-10 renal
[51] = system: IGROV1 ovarian
[52] = system: CCRF-CEM leukemia
[53] = system: DU-145 prostate
[54] = system: PC-3 prostate
[55] = system: HL-60(TB) leukemia

## C#Cc1nc(/C=C/C(=O)NO)cs1
[1]
  GI50: 3.51 µM
  TGI: 14.5 µM
[2]
  GI50: 2.44 µM
  TGI: 6.84 µM
[3]
  GI50: 0.211 µM
  TGI: 0.427 µM
[4]
  GI50: 1.62 µM
  TGI: 3.12 µM
[5]
  GI50: 1.56 µM
  TGI: 3.58 µM
[6]
  GI50: 0.182 µM
  TGI: 0.341 µM
[7]
  GI50: 6.8 µM
  TGI: 24.3 µM
[8]
  GI50: 1.91 µM
  TGI: 3.56 µM
[9]
  GI50: 2.14 µM
  TGI: 8.56 µM
[10]
  GI50: 4.02 µM
  TGI: 33.7 µM
[11]
  GI50: 12.7 µM
  TGI: 26.1 µM
[12]
  GI50: 1.3 µM
  TGI: 2.71 µM
[13]
  GI50: 3.27 µM
  TGI: 19.6 µM
[14]
  GI50: 3.7 µM
  TGI: 15.9 µM
[15]
  GI50: 3.32 µM
  TGI: 13.4 µM
[16]
  GI50: 2.63 µM
  TGI: 6.74 µM
[17]
  GI50: 4.58 µM
  TGI: 17.6 µM
[18]
  GI50: 2.76 µM
  TGI: 15 µM
[19]
  GI50: 4.17 µM
  TGI: 14.9 µM
[20]
  GI50: 3.15 µM
  TGI: 19.4 µM
[21]
  GI50: 1.15 µM
  TGI: 34.1 µM
[22]
  GI50: 1.55 µM
  TGI: 11 µM
[23]
  GI50: 3.15 µM
  TGI: 15 µM
[24]
  GI50: 2.24 µM
  TGI: 5.08 µM
[25]
  GI50: 0.171 µM
  TGI: 0.326 µM
[26]
  GI50: 2.25 µM
  TGI: 5.07 µM
[27]
  GI50: 1.11 µM
  TGI: 2.56 µM
[28]
  GI50: 2.03 µM
  TGI: 7.65 µM
[29]
  GI50: 2.07 µM
  TGI: 5.08 µM
[30]
  GI50: 10.4 µM
  TGI: 36.6 µM
[31]
  GI50: 5.89 µM
  TGI: 85 µM
[32]
  GI50: 3.6 µM
  TGI: 14 µM
[33]
  GI50: 3.89 µM
  TGI: 22.5 µM
[34]
  GI50: 1.91 µM
  TGI: 4.28 µM
[35]
  GI50: 2.34 µM
  TGI: 6.11 µM
[36]
  GI50: 3.01 µM
  TGI: 12.8 µM
[37]
  GI50: 2.98 µM
  TGI: 14.9 µM
[38]
  GI50: 1.8 µM
  TGI: 3.66 µM
[39]
  GI50: 2.24 µM
  TGI: 11.5 µM
[40]
  GI50: 1.29 µM
  TGI: 2.85 µM
[41]
  GI50: 1.72 µM
  TGI: 3.24 µM
[42]
  GI50: 0.211 µM
  TGI: 0.44 µM
[43]
  GI50: 2.34 µM
  TGI: 5.7 µM
[44]
  GI50: 1.43 µM
  TGI: 3 µM
[45]
  GI50: 2.17 µM
  TGI: 7.44 µM
[46]
  GI50: 2.88 µM
  TGI: 7.82 µM
[47]
  GI50: 1.25 µM
  TGI: 2.91 µM
[48]
  GI50: 2.51 µM
  TGI: 7.1 µM
[49]
  GI50: 2.04 µM
  TGI: 7.62 µM
[50]
  GI50: 2.15 µM
  TGI: 8.1 µM
[51]
  GI50: 0.501 µM
  TGI: 1.92 µM
[52]
  GI50: 0.414 µM
  TGI: 1.95 µM
[53]
  GI50: 2.01 µM
  TGI: 6.16 µM
[54]
  GI50: 4.52 µM
  TGI: 23.7 µM
[55]
  GI50: 1.66 µM
  TGI: 4.09 µM
